Here are results for seven compounds from patent US20240043808A1, “Screenable Liver Disease Models and Methods” (INSPHERO AG, priority 2016, published 2024).

Entries after “also recorded” stand apart in the source; their conditions may differ. Read-outs that look alike come from different tables or passages of the source.

Data set [1] has as its system liver microtissues. Kind of data set: Lipid loading of liver microtissues, nile-red staining of lipid accumulation (steatosis). As to conditions: for lipid accumulation in microtissues: increasing concentrations of free fatty acid, nile-red staining. In kind it is cell-based. On the procedure:
FIG. 3A(1): Induction of liver-disease phenotype “steatosis” as determined by lipid accumulation. […] Images are depicted as maximal intensity projections.
FIG. 3A (2): Lipid accumulation in dependency of increasing concentrations of PA, OA or a combination thereof in a molar ratio of 2:1. The total amount of FFA was identical among the groups at a given concentration.
(§1) • Dissolve FFA-free BSA at RT for 1h in H2O for desired stock solution concentration • Dissolve desired amount of OA-Na in 1 mL 0.1 M NaOH-->at 70° C. • Dissolve desired amount of PA-Na 1 mL 0.1 M NaOH-->at 70° • Keep the FFAs on 70° C., while the BSA is placed on 37° C. • Mix FFA with BSA with a magnetic stirrer (for 30 min) • Dilute BSA with 0.1 M NaOH->vehicle control • Cool down to RT, sterile filter, aliquot and freeze. • For a final fatty acid (FA) solution dilute master stock in medium. • Replace medium of liver microtissues with FA-containing medium and incubate 2-7 days.

The subject of data set [2] is liver MT triple-culture (hepatocyte+inflammatory cells+stellate cells). Kind of data set: Pro-fibrotic gene expression in liver MT triple-culture treated with pro-fibrotic compounds. As to conditions: co-cultured microtissues, 14 days. On the procedure: MT mRNA was extracted using TRIzol conventional procedure and fold induction were calculated as 2^(−ΔΔCT) for each sample and negative control and expressed as mean fold induction±S.E.M. of three replicates with six MTs each. Actin was used as reference gene for each sample.

The test system is the same in data set [3]. Kind of data set: Viability of liver MT triple-culture treated with pro-fibrotic compounds. As to conditions: co-cultured microtissues, exposure over 14 days.
Data set [4] deals with liver microtissues. Briefly: ATP measurement after exposure of liver microtissues to free fatty acids. In kind it is cell-based. Conditions: increasing concentrations of FFA for 3-14 days; control BSA. The procedure:
FIG. 3A(3): ATP measurements from identical groups after exposure to increasing concentrations of FFA for 3-14 days.
as §1

For data set [5], the system named is triple/co-cultured (HepaRG THP1/hTERT-HSC) liver MT. Kind of data set: MTT viability of liver MT stimulated with inflammatory and pro-fibrotic stimuli. In kind it is cell-based, human. As to conditions: co-cultured microtissues, 14 days of treatment.
The test system of data set [6] is mono-cultured (HepaRG) and triple/co-cultured (HepaRG THP1/hTERT-HSC) liver MT. Briefly: Gene expression of fibrotic markers and cytokines in liver MT exposed to LPS, TNF-α and TGF-β1. In kind it is cell-based, human. Conditions: for IL-6 gene induction: HepaRG monocultures. The text has this:
Induction of fibrosis biomarkers, Collagen I and IV upon treatment with inflammation-stimuli LPS or TNF-α and pro-fibrotic TGF-β1 signaling molecule. […] Actin was used as reference gene for each sample. ND: no-detected values. *; P≤0.05.
In order to assess the responsiveness towards prototypic inflammatory stimuli and pro-fibrotic stimuli on a gene-expression level, mono-cultured (HepaRG) and triple/co-cultured (HepaRG THP1/hTERT-HSC) liver MT were stimulated with inflammatory inducers (LPS or TNF-α) and the pro-fibrotic cytokine TGF-β1 to assess the cellular responses. Significant differences in the responses of the two types of MT were observed (FIG. 4). […] For example, mRNA of collagen I was only detected in the co-culture system, but not in the monocultures.

In data set [7] the test system is Human liver microtissues (+Kupffer cells) with stellate cells. Kind of data set: Inhibition of fibrosis progression, immunohistochemical staining of collagen I. In kind it is cell-based. As to conditions: 7 days treatment, stellate cell comprising microtissues, in presence of TGF-β1. The source says: FIG. 6: Therapeutic effect of inhibition of pro-fibrotic effector pathways (TGF-βR, TK-R) was confirmed in triple co-culture liver MTs. Human liver MTs prepared form primary human hepatocytes, primary human Kupffer cells and primary human stellate cells where treated with TGF-β1 alone, or in combination with undisclosed inhibitors of i) TGF-β1 receptor, ii) ALK5, and iii) Tyrosine Kinase receptors.
Human liver microtissues (+Kupffer cells) without stellate cells and with either a stellate cell line or primary human stellate cells were treated with a fibrosis inducer (TGF-β1) and in combination with an undisclosed fibrosis inhibitor. […] Even more pronounced is the difference between TGF-β1 treated stellate cell comprising microtissues and TGF-β1/inhibitor treated cultures.

Data set [8] has as its system liver endothelial cells (LEC). As to conditions: 5 days treatment, sub-toxic doses, LEC-coated microtissues. The text has this:
FIG. 7: Assessment of LEC-specific toxicity.
Spheroidal liver microtissues containing hepatocytes and Kupffer cells were coated with liver endothelial cells (LEC) and subjected to 5 days treatment with sub-toxic doses of Acetaminophen (APAP), Cyclophosphamide and Monocrotaline (FIG. 7). After the treatment, microtissues were collected, formalin fixed and paraffin embedded, sliced and stained by immunohistochemistry for the LEC-marker CD31.

As to `CCCCCCCC/C=C\CCCCCCCC(=O)O` [OA, Oleate], the “steatosis phenotype (lipid droplets in hepatocytes)” value in the data set on liver microtissues [1] (FIG. 3A1) was “small lipid droplets (microvesicular steatosis)”.

Take `CC(=N)S` [TAA, Thiocetamide]: in data set [2], the “transcriptional induction of collagen I, collagen IV, fibronectin I and CD44” value is listed as “greatly enhanced; also recorded: dose-dependent transcriptional induction”. Also, the MT viability result in data set [3] is on record as “Dose-dependent loss of viability or metabolic activity; also recorded: dose-dependent decrease”.

With `CCCCCCCCCCCCCCCC(=O)O` [PA, palmitic acid], in the data set with liver microtissues [1], the “steatosis phenotype (lipid droplets in hepatocytes)” value is reported as “rather macrovesicular phenotype” and the “lipid accumulation in microtissues” value is “reduced lipid incorporation at concentrations higher than PA3”. For the same compound, in the data set with liver microtissues [1] (listed as Palmitate), the “lipid accumulation in microtissues” value was “induced lipid accumulation”. Besides, the ATP result with liver microtissues [4] is “decreased values in microtissues exposed to PA4 and higher”.

Turning to TNF-α, in data set [5], the cellular viability result was “increased cellular viability”. Further, the IL-6 gene induction entry in data set [6] is reported as “strongly responsive”.

For the compound “TGF-β1: pro-fibrotic cytokine, fibrosis inducer”, the “fibrotic phenotype, collagen I deposition” value in data set [7] was “severe fibrotic phenotype with collagen deposition”. Moreover, the cellular viability entry in data set [5] is recorded as “decreased viability”. The IL-6 gene induction result in data set [6] was “did not induce”. The IL-6 gene expression result in data set [6] (co-cultures) is reported as “observed in co-cultures”.

For the compound `C[C@H]1C(=O)O[C@@H]2CCN3CC=C(COC(=O)[C@](C)(O)[C@]1(C)O)[C@H]23` [monocrotalin, Monocrotaline], the “LEC-marker CD31 (immunohistochemistry)” value in data set [8] is given as “heavily reduced or completely absent”; in data set [8] (listed as Monocrotaline), “reduced LEC-presence”.

Take `O=P1(N(CCCl)CCCl)NCCCO1` (centres unmarked) [cyclosphosphamide, Cyclophosphamide]: the “LEC-marker CD31 (immunohistochemistry)” value in data set [8] is “heavily reduced or completely absent”; in data set [8] (listed as Cyclosphosphamide), “reduced LEC-presence”.
